The values below come from patent US20250269043A1, “TARGETED BIFUNCTIONAL DEGRADERS” (YALE UNIVERSITY, priority 2019, published 2025).

Data set [1] can be described thus: Tolerability in mice (body weight, serum AST and ALT). Format: in vivo. On the procedure:
FIGS. 93A-93C illustrate that DNP-GN3 and DNP-OH3 are not toxic to mice at all tested concentrations. FIG. 93A: mouse body weight following treatment with DNP-GN3 or DNP-OH3. Statistical differences were analyzed by T test. FIG. 93B: levels of aspartate transaminase (AST) in treated mice. Dashed lines represent the normal range. FIG. 93C: levels of alanine transaminase (ALT) in treated mice. Dashed lines represent the normal range.

Data set [2] relates to HepG2 cells. Briefly: DNP-AF3-mediated α-DNP antibody endocytosis by HepG2 cells (flow cytometry). It counts as cell-based, human. Particulars: α-DNP antibody 1 nM. On the procedure:
The intracellular fluorescence of cells that were incubated at 37° C. with both fluorescently labeled α-DNP antibody and DNP-AF3 for a given amount of time was examined. Cells were then washed, removed from the plate with trypsin, and subjected to flow cytometry.
It was then determined if reagents which inhibit ternary complex formation inhibit endocytosis mediated by DNP-AF3.
Next, whether inhibitors of specific endocytic pathways inhibited α-DNP antibody endocytosis was determined (FIG. 106).
On the technique in general: A flow cytometer gives signals particle by particle.

A further data set has as its system PC3 cells. In words: PC3 human prostate cancer cell tumor model in mice. It counts as in vivo. Conditions: for tumor growth: FIG. 138. On the procedure:
The ability of MIF-GN3 to mediate the depletion of MIF in a therapeutically relevant disease model was investigated. […] An experiment was conducted to determine whether the bifunctional molecule MIF-GN3 can deplete sufficient human MIF from serum to slow PC3 tumor growth. Mice were injected with an aliquot of PC3 cells, and the size of the resultant tumors as well as the levels of human MIF in serum were monitored over five weeks. […] Five weeks after the initial PC3 cell injection, the first of the mice reached maximal tumor size ([…]) and was sacrificed (FIG. 138). […] The decrease in human MIF levels mediated by MIF-GN3 is consistent with a mechanism of action in which MIF-GN3 mediates the depletion and degradation of circulating MIF protein. While the α-MIF antibody would not necessarily be expected to decrease the levels of human MIF, it is possible that the antibody mediates MIF neutralization in a manner which masks its signal as determined by ELISA. Alternatively, the α-MIF antibody may mediate depletion or degradation of huMIF by some endocytic mechanism. Another possible explanation is that the α-MIF antibody decrease serum levels of active human MIF to such an extent at early time points that PC3 cells proliferate much more slowly, and therefore fewer cells are actively secreting human MIF.
Mice were sacrificed when their tumor volumes reached 1000 mm^3. […] At this same time point, less than 25% of the mice in any other arm had survived.

A further data set addresses T1, human MIF (Homo sapiens, UniProt P14174).
T1 sequence (P14174 2-115 limits assumed): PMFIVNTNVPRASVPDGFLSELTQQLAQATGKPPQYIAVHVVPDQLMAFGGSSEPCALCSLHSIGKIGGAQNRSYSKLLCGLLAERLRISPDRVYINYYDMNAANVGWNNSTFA
Briefly: Depletion of injected recombinant human MIF from serum in mice. It counts as in vivo. Further details: injected into mice. Particulars: for depletion of human MIF protein from serum: 30 minutes, FIG. 135. On the procedure:
In vivo human MIF depletion experiments were undertaken to determine whether MIF-GN3 can mediate the depletion of injected recombinant human MIF from serum in mice. Mice were injected with five μg of the human MIF protein. In this experiment, one group of mice was also injected with a single 10 mpk dose of MLF-GN3 along with human MIF protein. It was observed that after four hours, the average level of human MIF in serum in the PBS-treated mice was 1.76 ng/mL (FIG. 134). In mice treated with 10 mpk MIF-GN3, however, the concentration of human MIF in serum was 0.68 ng/mL. One day after the initial injection, human MIF levels had reached background levels for both conditions. […] It was hypothesized that, due to the short half-life of human MIF in serum, investigating human MIF levels at earlier time points may be more informative.
Next, an experiment was performed to determine whether MIF-GN3 could enhance MIF clearance at time points earlier than four hours. Mice were coinjected with recombinant human MIF and 10 mpk MIF-GN3 via either i.p. or i.v. routes. For the PBS control arms, human MIF was injected with PBS. It was observed that in the absence of MIF-GN3, there was a spike in huMIF levels in circulation after 30 minutes (FIG. 135). In the presence of MIF-GN3, however, levels of MIF protein remained low at 30 minutes and no spike in its concentration was observed. By two hours, the levels of human MIF in circulation decreased to background levels.
In a further experiment, whether an inhibitor of the MIF protein (3w) is able to mediate the protein's depletion from serum was determined. A bifunctional molecule that mediates the depletion of α-DNP antibody from serum was also assayed as a negative control. Neither of these molecules was expected to mediate the formation of a ternary complex between human MIF protein and ASGPR.

Data set [3] deals with HepG2 cells. In words: MIF-GN3-mediated endocytosis of Alexa 488-labeled human MIF by HepG2 cells. Conditions: FIG. 131. On the procedure: Human MIF protein was fluorescently labeled with Alexa 488 NHS ester, then incubated with HepG2 cells in the presence of varying levels of MIF-GN3.
The ability of MIF-GN3 to mediate MIF endocytosis over a wide range of target protein concentrations was assessed.
Next, inhibitors of various endocytic pathways were utilized to determine if MIF-GN3 mediates MIF endocytosis in a manner consistent with ASGPR (FIG. 132).

The subject of data set [4] is HepG2 cells. In words: Colocalization of endocytosed MIF protein in HepG2 cells. Format: cell-based, human. Conditions: MIF 100 nM, MIF-GN3 200 nM; FIG. 133. On the procedure:
FIG. 133 illustrates that cells treated with MIF-GN3 and exogenous MIF accumulate MIF punctate in cells. […] MIF was present at a concentration of 100 nM, and MIF-GN3 was present at a concentration of 200 nM.
In order to investigate the subcellular localization of endocytosed MIF protein, colocalization studies were performed in HepG2 cells. After 12 hours of MIF-GN mediated endocytosis, several punctae displaying MIF-derived fluorescence were present in each cell.

Data set [5] is described as follows: Pharmacokinetics of MIF-GN3 in male nude mice. It counts as in vivo. Conditions: one mpk dose. The source says: The ability of MIF-GN3 to mediate the depletion of injected human MIF from serum in mice was studied. First, the pharmacokinetics of the bifunctional molecule were investigated.
Setting [6] is: MIF-GN3 at 10 mpk, control arms DNP-GN3 and 3w.

Regarding `CC(=O)NC1C(OCCOCCOCCNC(=O)CCOCC(COCCC(=O)NCCOCCOCCOC2OC(CO)C(O)C(O)C2NC(C)=O)(COCCC(=O)NCCOCCOCCOC2OC(CO)C(O)C(O)C2NC(C)=O)NC(=O)CNC(=O)COCCOCCOCCNc2ccc([N+](=O)[O-])cc2[N+](=O)[O-])OC(CO)C(O)C1O` (stereo not shown) [DNP-GN3], the “differences in body weight or serum liver enzyme levels between control and treatment groups” value in data set [1] (doses up to 100 mpk, FIGS. 93A-93C) is recorded as “no significant differences”. This compound yielded a well-tolerated dose in data set [1] (mice) of at most 100 mpk. Also, in the data set on HepG2 cells [2], the “uptake of α-DNP antibody at low target protein concentration” value was “not effective”. Further, the tumor growth entry in the data set on PC3 cells (setting [6]) was “not found to decrease tumor growth”. In addition, the “human MIF concentration in serum compared to the PBS control” value on human MIF (control molecules injected along with human MIF, FIG. 136) was “no significant decreases”.
`CC(=O)N[C@H]1[C@H](OCCOCCOCCNC(=O)CCOCC(COCCC(=O)NCCOCCOCCO[C@@H]2O[C@H](CO)[C@H](O)[C@H](O)[C@H]2NC(C)=O)(COCCC(=O)NCCOCCOCCO[C@@H]2O[C@H](CO)[C@H](O)[C@H](O)[C@H]2NC(C)=O)NC(=O)CNC(=O)CCCOc2ccc3nc(-c4cn(-c5ccc(O)c(F)c5)nn4)ccc3c2)O[C@H](CO)[C@H](O)[C@@H]1O` [MIF-GN3]: in the data set on HepG2 cells [3] (MIF protein 10 nM, 200 nM MIF-GN3), the “fluorescence of cells relative to cells not treated with bifunctional molecule” value stood at 4 fold. For the same compound, the “MIF uptake at high concentration compared to lower concentrations” value in the data set on HepG2 cells [3] (MIF protein 100 nM, MIF-GN3 5.00 μM) is listed as “slight decrease in MIF uptake”. The “colocalization of MIF signal with LAMP2” value in the data set on HepG2 cells [4] is listed as “strong colocalization”. Moreover, in data set [5], the half-life in serum amounted to 25.8 min. Further, in data set [5], the “time of maximum plasma concentration” value is 15 min. In addition, the “levels of human MIF protein in the serum” value in the data set with PC3 cells (MIF-GN3 1 mpk, α-MIF antibody arm, FIG. 139) is listed as “decreased levels”. Besides, the tumor growth entry is on record as “not found to decrease tumor growth” in the data set on PC3 cells (setting [6]) and “delay in tumor growth” in the data set with PC3 cells (MIF-GN3 at a dose of 1 mpk, α-MIF antibody arm). Also, in the data set with PC3 cells (eight weeks after the initial PC3 cell injection, MIF-GN3 1 mpk, FIG. 140), the survival came to 80%. Besides, the “depletion of human MIF protein from serum” value at human MIF (10 mpk coinjected i.p.) and at human MIF (10 mpk coinjected i.v.) was “significant depletion” throughout. In addition, the “human MIF levels in serum compared to the PBS control” value is “significant decrease” at human MIF (one mpk, 40 and 60 minute time points, FIG. 136); “significant decreases” on human MIF (ten mpk, 40 and 60 minutes, FIG. 136). Besides, the “concentration of human MIF in serum” value on human MIF (single 10 mpk dose with five μg human MIF, after four hours, PBS-treated 1.76 ng/mL, difference not significant, FIG. 134) was 0.68 ng/mL.
